Legend:
[1] = system: Tyrosine-protein kinase ABL1 (Homo sapiens), P00519 [F317I]; conditions: Compound concentration 1000.0 nM
[2] = target: Histamine H4 receptor (Homo sapiens) (UniProt Q9H3N8); conditions: Compound concentration 10.0 uM
[3] = target: T1, Serine/threonine-protein kinase DCLK3 (Homo sapiens) (UniProt Q9C098); conditions: Compound concentration 1000.0 nM
T1 sequence (whole entry): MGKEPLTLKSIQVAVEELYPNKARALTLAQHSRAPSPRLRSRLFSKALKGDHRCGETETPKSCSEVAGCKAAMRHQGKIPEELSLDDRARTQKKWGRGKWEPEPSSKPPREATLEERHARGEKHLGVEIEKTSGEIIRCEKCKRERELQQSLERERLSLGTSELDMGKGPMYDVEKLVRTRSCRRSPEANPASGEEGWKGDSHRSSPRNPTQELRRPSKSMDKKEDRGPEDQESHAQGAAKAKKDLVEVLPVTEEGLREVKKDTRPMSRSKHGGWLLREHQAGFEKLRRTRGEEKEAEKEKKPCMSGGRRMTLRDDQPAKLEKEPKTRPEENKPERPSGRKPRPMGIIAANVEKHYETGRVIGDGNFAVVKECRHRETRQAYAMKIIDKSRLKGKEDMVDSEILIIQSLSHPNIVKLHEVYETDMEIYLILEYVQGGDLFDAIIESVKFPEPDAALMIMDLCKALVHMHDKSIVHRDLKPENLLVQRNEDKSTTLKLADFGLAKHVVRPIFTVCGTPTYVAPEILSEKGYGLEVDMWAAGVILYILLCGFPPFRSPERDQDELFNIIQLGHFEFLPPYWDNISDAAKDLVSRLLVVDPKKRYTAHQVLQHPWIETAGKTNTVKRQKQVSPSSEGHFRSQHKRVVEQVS

[4] = target: Tyrosine-protein kinase Fyn (Homo sapiens) (UniProt P06241); conditions: Compound concentration 1000.0 nM
[5] = target: Protein kinase C theta type (Homo sapiens) (UniProt Q04759); conditions: Compound concentration 1000.0 nM
[6] = target: Serine/threonine-protein kinase Nek7 (Homo sapiens) (UniProt Q8TDX7); conditions: Compound concentration 1000.0 nM
[7] = target: T2, Inhibitor of nuclear factor kappa-B kinase subunit beta (Homo sapiens) (UniProt O14920); conditions: Compound concentration 1000.0 nM
T2 sequence (whole entry): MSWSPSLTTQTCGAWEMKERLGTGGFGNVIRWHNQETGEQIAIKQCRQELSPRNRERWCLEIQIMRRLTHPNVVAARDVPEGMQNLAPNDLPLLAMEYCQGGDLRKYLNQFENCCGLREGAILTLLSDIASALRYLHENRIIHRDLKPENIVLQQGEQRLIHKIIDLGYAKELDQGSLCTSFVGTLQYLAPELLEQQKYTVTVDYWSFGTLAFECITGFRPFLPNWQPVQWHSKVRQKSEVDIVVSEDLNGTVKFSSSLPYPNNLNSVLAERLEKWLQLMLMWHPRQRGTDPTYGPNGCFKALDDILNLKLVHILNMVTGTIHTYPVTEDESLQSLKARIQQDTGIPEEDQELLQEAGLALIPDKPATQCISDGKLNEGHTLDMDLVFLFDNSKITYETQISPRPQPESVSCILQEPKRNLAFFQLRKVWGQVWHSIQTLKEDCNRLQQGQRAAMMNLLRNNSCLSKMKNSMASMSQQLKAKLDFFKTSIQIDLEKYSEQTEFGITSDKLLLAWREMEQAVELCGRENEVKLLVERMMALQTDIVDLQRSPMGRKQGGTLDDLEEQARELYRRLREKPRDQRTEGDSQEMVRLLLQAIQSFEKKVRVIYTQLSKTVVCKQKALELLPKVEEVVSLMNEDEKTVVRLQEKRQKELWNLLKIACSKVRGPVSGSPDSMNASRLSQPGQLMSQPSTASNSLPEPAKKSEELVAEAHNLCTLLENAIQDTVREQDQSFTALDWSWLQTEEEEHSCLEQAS

[8] = target: Dual specificity testis-specific protein kinase 1 (Homo sapiens) (UniProt Q15569); conditions: Compound concentration 1000.0 nM
[9] = target: Muscarinic acetylcholine receptor M1 (Homo sapiens) (UniProt P11229); conditions: Compound concentration 10.0 uM
[10] = target: T3, Ephrin type-B receptor 1 (Homo sapiens) (UniProt P54762); conditions: Compound concentration 1000.0 nM
T3 sequence (whole entry): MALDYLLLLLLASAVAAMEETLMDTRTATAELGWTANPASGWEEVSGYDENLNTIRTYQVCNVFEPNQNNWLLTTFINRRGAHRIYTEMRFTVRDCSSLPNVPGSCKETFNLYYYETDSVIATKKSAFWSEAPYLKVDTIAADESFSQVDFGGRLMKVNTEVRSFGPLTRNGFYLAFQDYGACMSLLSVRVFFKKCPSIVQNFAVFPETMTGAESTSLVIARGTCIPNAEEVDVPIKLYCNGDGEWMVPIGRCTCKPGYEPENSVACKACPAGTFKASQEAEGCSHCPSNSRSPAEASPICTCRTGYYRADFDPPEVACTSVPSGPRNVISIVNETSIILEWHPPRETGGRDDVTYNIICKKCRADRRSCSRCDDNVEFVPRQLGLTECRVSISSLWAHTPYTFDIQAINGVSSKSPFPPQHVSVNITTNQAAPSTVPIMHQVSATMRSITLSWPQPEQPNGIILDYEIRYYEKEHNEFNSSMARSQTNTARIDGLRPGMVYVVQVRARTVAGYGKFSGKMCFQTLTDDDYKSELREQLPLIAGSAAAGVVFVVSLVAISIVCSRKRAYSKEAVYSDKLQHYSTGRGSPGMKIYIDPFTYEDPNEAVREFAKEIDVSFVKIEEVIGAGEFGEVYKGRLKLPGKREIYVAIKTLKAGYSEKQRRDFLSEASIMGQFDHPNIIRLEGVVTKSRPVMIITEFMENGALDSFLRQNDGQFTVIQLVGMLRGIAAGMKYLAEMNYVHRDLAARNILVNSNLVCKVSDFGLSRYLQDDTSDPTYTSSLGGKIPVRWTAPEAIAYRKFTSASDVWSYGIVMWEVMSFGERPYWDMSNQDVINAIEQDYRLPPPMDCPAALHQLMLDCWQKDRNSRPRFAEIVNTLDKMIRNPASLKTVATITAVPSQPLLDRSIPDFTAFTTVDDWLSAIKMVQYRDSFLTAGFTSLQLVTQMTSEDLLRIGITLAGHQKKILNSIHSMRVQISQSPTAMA

Dual specificity testis-specific protein kinase 1 (Homo sapiens), sequence (Q15569 whole entry, looked up): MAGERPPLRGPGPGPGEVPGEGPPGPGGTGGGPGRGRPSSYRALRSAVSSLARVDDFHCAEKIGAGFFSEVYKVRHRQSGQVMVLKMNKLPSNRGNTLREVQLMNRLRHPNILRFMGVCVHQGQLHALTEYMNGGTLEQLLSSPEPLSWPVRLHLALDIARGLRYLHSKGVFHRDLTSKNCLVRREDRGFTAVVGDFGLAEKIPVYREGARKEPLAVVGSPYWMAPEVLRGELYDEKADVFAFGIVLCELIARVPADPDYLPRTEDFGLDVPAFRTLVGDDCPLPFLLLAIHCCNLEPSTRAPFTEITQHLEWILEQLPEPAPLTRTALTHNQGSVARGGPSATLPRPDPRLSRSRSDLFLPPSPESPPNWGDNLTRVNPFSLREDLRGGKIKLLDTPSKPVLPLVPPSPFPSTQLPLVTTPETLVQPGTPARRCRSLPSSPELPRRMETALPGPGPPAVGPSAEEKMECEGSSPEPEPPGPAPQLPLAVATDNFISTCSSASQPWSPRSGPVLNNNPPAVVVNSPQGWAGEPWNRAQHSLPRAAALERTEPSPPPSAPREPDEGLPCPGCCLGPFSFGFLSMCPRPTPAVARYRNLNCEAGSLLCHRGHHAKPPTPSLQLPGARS
Protein kinase C theta type (Homo sapiens), sequence (Q04759 whole entry, looked up): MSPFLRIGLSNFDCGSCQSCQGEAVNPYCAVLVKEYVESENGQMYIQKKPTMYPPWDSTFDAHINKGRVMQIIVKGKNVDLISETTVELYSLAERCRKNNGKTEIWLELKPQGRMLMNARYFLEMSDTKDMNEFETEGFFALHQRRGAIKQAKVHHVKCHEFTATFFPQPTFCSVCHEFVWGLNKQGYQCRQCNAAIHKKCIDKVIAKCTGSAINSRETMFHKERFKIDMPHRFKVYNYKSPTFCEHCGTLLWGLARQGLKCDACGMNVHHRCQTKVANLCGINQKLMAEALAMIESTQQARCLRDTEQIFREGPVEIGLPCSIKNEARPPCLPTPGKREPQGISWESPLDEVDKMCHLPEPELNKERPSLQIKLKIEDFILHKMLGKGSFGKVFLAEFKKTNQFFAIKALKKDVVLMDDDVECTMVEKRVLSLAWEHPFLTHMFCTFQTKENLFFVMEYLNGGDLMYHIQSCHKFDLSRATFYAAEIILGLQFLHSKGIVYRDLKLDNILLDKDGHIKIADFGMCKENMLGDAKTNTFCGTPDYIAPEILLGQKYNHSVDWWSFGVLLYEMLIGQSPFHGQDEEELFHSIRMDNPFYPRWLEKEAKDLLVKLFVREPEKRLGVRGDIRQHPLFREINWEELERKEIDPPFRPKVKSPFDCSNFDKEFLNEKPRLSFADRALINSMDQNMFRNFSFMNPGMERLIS
Histamine H4 receptor (Homo sapiens), sequence (Q9H3N8 whole entry): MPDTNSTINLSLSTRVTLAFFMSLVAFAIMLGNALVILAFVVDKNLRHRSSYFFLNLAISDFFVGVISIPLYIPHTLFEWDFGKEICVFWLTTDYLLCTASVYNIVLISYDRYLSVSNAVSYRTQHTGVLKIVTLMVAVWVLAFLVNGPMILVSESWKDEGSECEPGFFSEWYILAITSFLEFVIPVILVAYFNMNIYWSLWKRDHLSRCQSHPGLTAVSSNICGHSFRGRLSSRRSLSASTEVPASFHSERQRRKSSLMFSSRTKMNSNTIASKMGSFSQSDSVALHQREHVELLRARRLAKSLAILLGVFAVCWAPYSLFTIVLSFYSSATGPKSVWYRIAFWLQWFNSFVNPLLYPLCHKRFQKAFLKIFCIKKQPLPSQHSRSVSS
Serine/threonine-protein kinase Nek7 (Homo sapiens), sequence (Q8TDX7 whole entry, looked up): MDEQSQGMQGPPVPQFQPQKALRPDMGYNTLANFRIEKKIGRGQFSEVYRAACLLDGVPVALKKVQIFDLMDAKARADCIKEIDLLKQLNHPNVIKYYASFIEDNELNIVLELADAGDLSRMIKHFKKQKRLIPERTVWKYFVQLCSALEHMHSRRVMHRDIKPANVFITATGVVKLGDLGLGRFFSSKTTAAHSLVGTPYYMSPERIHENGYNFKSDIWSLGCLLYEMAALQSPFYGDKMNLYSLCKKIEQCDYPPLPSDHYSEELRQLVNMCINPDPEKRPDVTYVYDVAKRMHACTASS
Tyrosine-protein kinase ABL1 (Homo sapiens), P00519 [F317I], sequence (P00519 whole entry F317I): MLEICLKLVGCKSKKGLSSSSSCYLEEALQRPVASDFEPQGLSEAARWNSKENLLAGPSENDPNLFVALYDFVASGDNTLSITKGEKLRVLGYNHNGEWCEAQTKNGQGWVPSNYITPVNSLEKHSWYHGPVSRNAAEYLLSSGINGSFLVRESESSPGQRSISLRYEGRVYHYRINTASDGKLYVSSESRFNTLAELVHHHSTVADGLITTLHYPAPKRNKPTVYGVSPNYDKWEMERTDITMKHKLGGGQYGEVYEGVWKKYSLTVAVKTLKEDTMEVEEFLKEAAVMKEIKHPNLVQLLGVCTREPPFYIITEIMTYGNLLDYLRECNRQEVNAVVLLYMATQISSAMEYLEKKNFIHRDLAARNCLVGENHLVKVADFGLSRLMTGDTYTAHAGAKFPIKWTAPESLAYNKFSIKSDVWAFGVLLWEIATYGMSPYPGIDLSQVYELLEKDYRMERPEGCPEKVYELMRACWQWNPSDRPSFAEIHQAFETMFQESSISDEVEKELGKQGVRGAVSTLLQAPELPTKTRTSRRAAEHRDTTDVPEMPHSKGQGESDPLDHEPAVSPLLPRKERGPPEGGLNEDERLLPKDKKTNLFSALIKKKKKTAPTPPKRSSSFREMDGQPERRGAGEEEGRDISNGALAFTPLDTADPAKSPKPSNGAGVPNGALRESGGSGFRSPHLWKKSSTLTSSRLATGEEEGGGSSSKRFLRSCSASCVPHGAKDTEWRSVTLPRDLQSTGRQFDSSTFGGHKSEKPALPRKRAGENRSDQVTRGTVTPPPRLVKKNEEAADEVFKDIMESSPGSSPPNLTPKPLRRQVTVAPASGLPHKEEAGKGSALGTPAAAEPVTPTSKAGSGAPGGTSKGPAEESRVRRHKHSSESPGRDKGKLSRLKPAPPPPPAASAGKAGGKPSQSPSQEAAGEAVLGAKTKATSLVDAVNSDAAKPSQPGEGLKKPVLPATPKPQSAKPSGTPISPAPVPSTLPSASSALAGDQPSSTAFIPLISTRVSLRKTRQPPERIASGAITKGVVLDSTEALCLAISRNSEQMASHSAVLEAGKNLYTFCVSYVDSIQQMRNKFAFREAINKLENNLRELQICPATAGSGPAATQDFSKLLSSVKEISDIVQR
Muscarinic acetylcholine receptor M1 (Homo sapiens), sequence (P11229 whole entry): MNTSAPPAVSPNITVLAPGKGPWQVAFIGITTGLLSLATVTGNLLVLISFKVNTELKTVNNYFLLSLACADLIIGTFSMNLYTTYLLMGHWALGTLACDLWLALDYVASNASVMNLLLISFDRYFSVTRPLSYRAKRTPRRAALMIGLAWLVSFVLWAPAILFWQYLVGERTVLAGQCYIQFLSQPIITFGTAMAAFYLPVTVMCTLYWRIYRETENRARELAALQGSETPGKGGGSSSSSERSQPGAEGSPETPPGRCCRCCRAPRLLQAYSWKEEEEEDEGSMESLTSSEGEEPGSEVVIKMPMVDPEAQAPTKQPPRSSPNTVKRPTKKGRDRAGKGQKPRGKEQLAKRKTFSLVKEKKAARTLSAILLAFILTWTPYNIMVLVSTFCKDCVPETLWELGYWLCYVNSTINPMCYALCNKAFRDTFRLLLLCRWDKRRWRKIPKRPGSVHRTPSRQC
Tyrosine-protein kinase Fyn (Homo sapiens), sequence (P06241 2-537 limits assumed): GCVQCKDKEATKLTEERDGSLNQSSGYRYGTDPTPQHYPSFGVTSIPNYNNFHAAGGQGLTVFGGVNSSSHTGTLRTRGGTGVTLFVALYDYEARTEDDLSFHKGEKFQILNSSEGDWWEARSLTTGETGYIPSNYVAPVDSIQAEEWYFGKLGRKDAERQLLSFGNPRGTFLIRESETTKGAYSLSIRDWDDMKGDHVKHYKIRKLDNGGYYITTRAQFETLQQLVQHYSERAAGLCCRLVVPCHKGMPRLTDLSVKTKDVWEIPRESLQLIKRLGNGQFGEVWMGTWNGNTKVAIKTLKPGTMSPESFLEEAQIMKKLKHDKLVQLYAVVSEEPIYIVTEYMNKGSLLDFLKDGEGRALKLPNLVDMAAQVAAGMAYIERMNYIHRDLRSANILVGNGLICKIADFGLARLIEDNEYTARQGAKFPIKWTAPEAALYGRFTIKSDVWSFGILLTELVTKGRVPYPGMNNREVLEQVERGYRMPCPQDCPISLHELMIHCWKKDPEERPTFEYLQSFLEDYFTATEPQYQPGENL

Cc1nc(C2CCN(C(=O)c3ccc(OC(F)(F)F)cc3N)CC2)c2ncc(N3CCN(C)CC3)cc2n1 [BAY-693]
inactive: residual activity [1] 100% | inhibition [2] -5.28% | residual activity [3] 98% | residual activity [4] 96% | residual activity [5] 93% | residual activity [6] 100% | residual activity [7] 78% | residual activity [8] 100% | inhibition [9] 2.76% | residual activity [10] 95%

CN1CCN(c2cnc3c(C4CCN(C(=O)c5ccc(OC(F)(F)F)cc5N)CC4)ncnc3c2)CC1 [BAY-885]
inactive: residual activity [1] 100% | inhibition [2] -1.34% | residual activity [3] 91% | residual activity [4] 100% | residual activity [5] 91% | residual activity [6] 100% | residual activity [7] 100% | residual activity [8] 96% | inhibition [9] 3.17% | residual activity [10] 100%
